Assay results from patent US20240109903A1, “SUBSTITUTED HETEROCYCLES FOR TREATING CANCER” (Northwestern University, priority 2022, published 2024).

Assays:
SK-MEL-5 = test: NCI 60 five-dose screen SK-MEL-5; format: cell-based; details: Homo sapiens
SK-MEL-28 = test: NCI 60 five-dose screen SK-MEL-28; format: cell-based; details: Homo sapiens
OVCAR-3 = test: NCI 60 five-dose screen OVCAR-3; format: cell-based; details: Homo sapiens
T-47D = test: NCI 60 five-dose screen T-47D; format: cell-based; details: Homo sapiens, T47D
A549/ATCC = test: NCI 60 five-dose screen A549/ATCC; format: cell-based; details: Homo sapiens
TK-10 = test: NCI 60 five-dose screen TK-10; format: cell-based; details: Homo sapiens
HOP-62 = test: NCI 60 five-dose screen HOP-62; format: cell-based; details: Homo sapiens
BT-549 = test: NCI 60 five-dose screen BT-549; format: cell-based; details: Homo sapiens
MOLT-4 = test: NCI 60 five-dose screen MOLT-4; format: cell-based; details: Homo sapiens
MALME-3M = test: NCI 60 five-dose screen MALME-3M; format: cell-based; details: Homo sapiens, Malme-3M
RPMI-8226 = test: NCI 60 five-dose screen RPMI-8226; format: cell-based; details: Homo sapiens
786-0 = test: NCI 60 five-dose screen 786-0; format: cell-based; details: Homo sapiens
HL-60(TB) = test: NCI 60 five-dose screen HL-60(TB); format: cell-based; details: Homo sapiens
SF-539 = test: NCI 60 five-dose screen SF-539; format: cell-based; details: Homo sapiens
OVCAR-4 = test: NCI 60 five-dose screen OVCAR-4; format: cell-based; details: Homo sapiens
A498 = test: NCI 60 five-dose screen A498; format: cell-based; details: Homo sapiens
U251 = test: NCI 60 five-dose screen U251; format: cell-based; details: Homo sapiens
NCI-H23 = test: NCI 60 five-dose screen NCI-H23; format: cell-based; details: Homo sapiens
CAKI-1 = test: NCI 60 five-dose screen CAKI-1; format: cell-based; details: Homo sapiens
IGROV1 = test: NCI 60 five-dose screen IGROV1; format: cell-based; details: Homo sapiens
M14 = test: NCI 60 five-dose screen M14; format: cell-based; details: Homo sapiens
ACHN = test: NCI 60 five-dose screen ACHN; format: cell-based; details: Homo sapiens
MDA-MB-468 = test: NCI 60 five-dose screen MDA-MB-468; format: cell-based; details: Homo sapiens
NCI-H226 = test: NCI 60 five-dose screen NCI-H226; format: cell-based; details: Homo sapiens
SR = test: NCI 60 five-dose screen SR; format: cell-based, human
HS 578T = test: NCI 60 five-dose screen HS 578T; format: cell-based; details: Homo sapiens
MCF7 = test: NCI 60 five-dose screen MCF7; format: cell-based; details: Homo sapiens
HCC-2998 = test: NCI 60 five-dose screen HCC-2998; format: cell-based; details: Homo sapiens
[1] = read-out: LC50 (the source's name) (converted)
[2] = read-out: LC50 (the source's name)

With Fc1ccc(N2CC(Cn3c(C(F)(F)F)cc4c(Cl)ncnc43)C2)c(F)c1 [NUCC-0226695] the GI50 (SK-MEL-5) was 11 µM, the IC50 (SK-MEL-5) was 18.2 µM and the IC (TGI) (SK-MEL-5) was 22.9 µM. For the same compound, the CC50 (SK-MEL-5; [1]) was 47.9 µM, the GI50 (SK-MEL-28) was 2.09 µM and the IC50 (SK-MEL-28) was 3.63 µM. For the same compound, the IC (TGI) (SK-MEL-28) was 4.9 µM, the CC50 (SK-MEL-28; [1]) was 16.6 µM and the GI50 (OVCAR-3) was 2.57 µM. For the same compound, the IC50 (OVCAR-3) was 4.9 µM, the IC (TGI) (OVCAR-3) was 6.46 µM and the CC50 (OVCAR-3; [1]) was 22.9 µM. For the same compound, the GI50 (T-47D) was 13.8 µM, the IC50 (T-47D) was 43.7 µM and the IC (TGI) (T-47D) was 67.6 µM. The CC50 (T-47D; [2]) was ≥ 100 µM, the GI50 (A549/ATCC) was 17.4 µM and the IC50 (A549/ATCC) was 29.5 µM. For the same compound, the IC (TGI) (A549/ATCC) was 35.5 µM, the CC50 (A549/ATCC; [1]) was 74.1 µM and the GI50 (TK-10) was 19.1 µM. The IC50 (TK-10) was 42.7 µM, the IC (TGI) (TK-10) was 51.3 µM and the CC50 (TK-10; [1]) was ≥ 100 µM. The GI50 (HOP-62) was 17 µM, the IC50 (HOP-62) was 32.4 µM and the IC (TGI) (HOP-62) was 33.9 µM. For the same compound, the CC50 (HOP-62; [1]) was 66.1 µM, the GI50 (BT-549) was 10.7 µM and the IC50 (BT-549) was 23.4 µM. It also gave an IC (TGI) (BT-549) of 22.9 µM, a CC50 (BT-549; [1]) of 49 µM and a GI50 (MOLT-4) of 3.09 µM. The IC50 (MOLT-4) was 4.57 µM, the IC (TGI) (MOLT-4) was 8.91 µM and the CC50 (MOLT-4; [2]) was ≥ 100 µM. For the same compound, the GI50 (MALME-3M) was 12.6 µM, the IC50 (MALME-3M) was 25.7 µM and the IC (TGI) (MALME-3M) was 25.1 µM. For the same compound, the CC50 (MALME-3M; [1]) was 50.1 µM, the GI50 (RPMI-8226) was 23.4 µM and the IC50 (RPMI-8226) was 37.2 µM. The IC (TGI) (RPMI-8226) was 64.6 µM, the CC50 (RPMI-8226; [2]) was ≥ 100 µM and the GI50 (786-0) was 14.8 µM. The IC50 (786-0) was 26.3 µM, the IC (TGI) (786-0) was 28.8 µM and the CC50 (786-0; [1]) was 57.5 µM. For the same compound, the GI50 (HL-60(TB)) was 2.24 µM, the IC50 (HL-60(TB)) was 3.89 µM and the IC (TGI) (HL-60(TB)) was 6.31 µM. For the same compound, the CC50 (HL-60(TB); [1]) was ≥ 100 µM, the GI50 (SF-539) was 13.8 µM and the IC50 (SF-539) was 24.5 µM. It also gave an IC (TGI) (SF-539) of 28.2 µM, a CC50 (SF-539; [1]) of 58.9 µM and a GI50 (OVCAR-4) of 12.9 µM. For the same compound, the IC50 (OVCAR-4) was 24.5 µM, the IC (TGI) (OVCAR-4) was 26.9 µM and the CC50 (OVCAR-4; [1]) was 56.2 µM. It also gave a GI50 (A498) of 23.4 µM, an IC50 (A498) of 100 µM and an IC (TGI) (A498) of 74.1 µM. The CC50 (A498; [1]) was ≥ 100 µM, the GI50 (U251; U-251) was 1.91 µM and the IC50 (U251; U-251) was 3.24 µM. The IC (TGI) (U251; U-251) was 3.8 µM, the CC50 (U251; U-251, read-out: LC50 (the source's name) (converted)) was 7.76 µM and the GI50 (NCI-H23) was 2.63 µM. It also gave an IC50 (NCI-H23) of 4.9 µM, an IC (TGI) (NCI-H23) of 8.32 µM and a CC50 (NCI-H23; [1]) of 30.9 µM. It also gave a GI50 (CAKI-1) of 11.7 µM, an IC50 (CAKI-1) of 20.4 µM and an IC (TGI) (CAKI-1) of 24 µM. It also gave a CC50 (CAKI-1; [1]) of 50.1 µM, a GI50 (IGROV1; IGROV-1) of 1.86 µM and an IC50 (IGROV1; IGROV-1) of 3.24 µM. The IC (TGI) (IGROV1; IGROV-1) was 3.55 µM, the CC50 (IGROV1; IGROV-1, read-out: LC50 (the source's name) (converted)) was 6.76 µM and the GI50 (M14) was 2.95 µM. It also gave an IC50 (M14) of 4.37 µM, an IC (TGI) (M14) of 10.7 µM and a CC50 (M14; [1]) of 45.7 µM. The GI50 (ACHN) was 12.9 µM, the IC50 (ACHN) was 21.9 µM and the IC (TGI) (ACHN) was 27.5 µM. The CC50 (ACHN; [1]) was 58.9 µM, the GI50 (MDA-MB-468) was 1.62 µM and the IC50 (MDA-MB-468) was 3.39 µM. The IC (TGI) (MDA-MB-468) was 3.24 µM, the CC50 (MDA-MB-468; [1]) was 6.31 µM and the GI50 (NCI-H226) was 14.1 µM. The IC50 (NCI-H226) was 33.9 µM, the IC (TGI) (NCI-H226) was 30.9 µM and the CC50 (NCI-H226; [1]) was 69.2 µM. For the same compound, the TGI (SR) was 5.16 −log[M], the GI50 (SR; Homo sapiens) was 2.14 µM and the IC50 (SR; Homo sapiens) was 3.39 µM. For the same compound, the CC50 (SR; Homo sapiens, read-out: LC50 (the source's name)) was ≥ 100 µM, the GI50 (HS 578T) was 7.08 µM and the IC50 (HS 578T) was 77.6 µM. The IC (TGI) (HS 578T) was 41.7 µM, the CC50 (HS 578T; [2]) was ≥ 100 µM and the GI50 (MCF7) was 8.13 µM. For the same compound, the IC50 (MCF7) was 12.9 µM, the IC (TGI) (MCF7) was 23.4 µM and the CC50 (MCF7; [1]) was 60.3 µM. For the same compound, the GI50 (HCC-2998) was 1.95 µM, the IC50 (HCC-2998) was 3.47 µM and the IC (TGI) (HCC-2998) was 3.47 µM. The CC50 (HCC-2998; [1]) was 6.17 µM.
